Results taken from patent publication US9593097B2, “Axl inhibitors” (Pfizer Inc., priority 2014, dated 2017).
pIC50: −log10 of the molar value.

Molecular target: Axl phosphorylation in 293MSR-AxlWT6 cells (Homo sapiens (Human), UniProt P30530)
Assay: Cellular Axl phosphorylation ELISA assay (Gas6-stimulated 293MSR-AxlWT6 cells)
Assay type: cell-based
Settings: Table 4A, read-out: CELL AXL IC50
Experimental: Cellular Axl Phosphorylation ELISA Assay
After 6-7 hrs in tissue culture incubator at 37° C. 5% CO2, medium was removed, serum-free medium was added (with 0.04% bovine serum albumin) and plates were returned to incubator where they remained overnight. […] Media was then removed and lysis buffer was added to wells and shaken at 4° C. for 30 min to generate protein lysates. Subsequently, phosphorylation of Axl was assessed by a sandwich ELISA method using a DuoSet IC Human Phospho-Axl ELISA assay kit (R&D System), an immobilized mouse anti-human Axl antibody and an anti-phospho-tyrosine-HRP antibody as a detection antibody. Antibody-coated plates were (a) incubated in presence of protein lysates at room temperature for 2 hrs, (b) washed seven times in 0.1% Tween 20 in PBS, (c) incubated with secondary antibody (a horseradish peroxidase-conjugated […]) for 2 hrs, (d) washed seven times again, (e) TMB peroxidase substrate (Bio-Rad) was added to initiate a colorimetric reaction and stopped by adding 0.2 N H2SO4, and (f) measured at OD 450 nm using a spectrophotometer. IC50 values were calculated by concentration-response curve fitting using a four-parameter analytic method and reported in μM.
For Table 4B, IC50 values were calculated by concentration-response curve fitting using a four-parameter analytic method and reported in nM.

Axl phosphorylation in 293MSR-AxlWT6 cells, sequence (P30530 26-894): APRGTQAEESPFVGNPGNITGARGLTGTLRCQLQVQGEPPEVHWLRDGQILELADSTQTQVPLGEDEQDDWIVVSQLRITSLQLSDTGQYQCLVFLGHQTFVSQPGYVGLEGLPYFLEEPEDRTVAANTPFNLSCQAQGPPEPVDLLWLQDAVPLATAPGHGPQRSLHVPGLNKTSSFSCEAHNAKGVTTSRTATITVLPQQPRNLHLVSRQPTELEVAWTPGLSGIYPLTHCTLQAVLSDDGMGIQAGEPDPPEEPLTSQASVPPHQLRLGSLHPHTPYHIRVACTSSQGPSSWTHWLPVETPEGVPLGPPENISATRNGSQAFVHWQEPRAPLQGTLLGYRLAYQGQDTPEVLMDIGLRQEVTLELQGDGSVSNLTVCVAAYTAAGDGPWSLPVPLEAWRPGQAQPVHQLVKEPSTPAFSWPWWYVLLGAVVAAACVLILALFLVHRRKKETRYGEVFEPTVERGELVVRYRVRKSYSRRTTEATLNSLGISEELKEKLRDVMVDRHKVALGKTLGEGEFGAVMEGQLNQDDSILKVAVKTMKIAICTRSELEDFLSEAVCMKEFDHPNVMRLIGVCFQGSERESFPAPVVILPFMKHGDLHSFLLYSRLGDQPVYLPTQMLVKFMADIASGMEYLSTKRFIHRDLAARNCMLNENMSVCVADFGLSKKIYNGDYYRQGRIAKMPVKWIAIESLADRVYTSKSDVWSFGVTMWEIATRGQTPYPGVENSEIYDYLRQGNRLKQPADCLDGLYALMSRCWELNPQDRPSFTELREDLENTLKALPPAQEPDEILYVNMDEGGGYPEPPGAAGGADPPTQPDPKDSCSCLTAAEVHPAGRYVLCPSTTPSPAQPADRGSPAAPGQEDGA

Molecule	pIC50
6-{4-[(3-amino- 1H-indazol-4- yl)oxy]piperidin-1- yl}-N- (bicyclo[1.1.1]pent- 1-yl)-2-[(1- cyanocyclopropyl) methoxy] pyrimidine- 4-carboxamide [Example 19]	7.61
CCOc1nc(C(=O)NC2CCC2)cc(N2CCC(c3nc(C(N)=O)ccc3OCCN(C)C)CC2)n1 [Example 2, 6-(4-{6-carbamoyl-3-[2-(dimethylamino)ethoxy]pyridin-2-yl}piperidin-1-yl)-N-cyclobutyl-2-ethoxypyrimidine-4-carboxamide]	6.61
CCNC(=O)c1cc(N2CCC(COc3cc(-c4cnn(C)c4)cnc3N)CC2)nc(OCC(C)O)n1 (stereo not drawn) [Example 45, 6-[4-({[2-amino-5-(1-methyl-1H-pyrazol-4-yl)pyridin-3-yl]oxy}methyl)piperidin-1-yl]-N-ethyl-2-(2-hydroxypropoxy) pyrimidine-4-carboxamide]	6.63
C[C@H](CO)Oc1nc(C(=O)NC23CC(C2)C3)cc(N2CCC(c3n[nH]c4ncccc34)CC2)n1 [Example 69, N-(bicyclo[1.1.1]pent-1-yl)-2-{[(2R)-1-hydroxypropan-2-yl]oxy}-6-[4-(1H-pyrazolo[3,4-b]pyridin-3-yl)piperidin-1-yl]pyrimidine-4-carboxamide]	6.64
CCNC(=O)c1nc(OCC2(C#N)CC2)nc(N2CCC(c3n[nH]c4ncccc34)CC2)n1 [Example 133, 4-(4-(1H-pyrazolo[3,4-b]pyridin-3-yl)piperidin-1-yl)-6-((1-cyanocyclopropyl)methoxy)-N-ethyl-1,3,5-triazine-2-carboxamide]	6.55
C[C@@H](O)COc1nc(C(=O)NC23CC(C2)C3)cc(N2CCC(c3n[nH]c4ncccc34)CC2)n1 [Example 70, N-(bicyclo[1.1.1]pent-1-yl)-2-[(2R)-2-hydroxypropoxy]-6-[4-(1H-pyrazolo[3,4-b]pyridin-3-yl)piperidin-1-yl]pyrimidine-4-carboxamide]	7.39
COc1ccnc2[nH]nc(C3CCN(c4cc(C(=O)N[C@@H](C)C(F)(F)F)nc(OC[C@H]5CCO5)n4)CC3)c12 [Example 381, 6-[4-(4-methoxy-1H-pyrazolo[3,4-b]pyridin-3-yl)piperidin-1-yl]-2-[(2R)-oxetan-2-ylmethoxy]-N-[(2S)-1,1,1-trifluoropropan-2-yl]pyrimidine-4-carboxamide]	9.11
N#C[C@@H]1C[C@@H]1COc1nc(C(=O)NC23CC(C2)C3)cc(N2CCC(c3n[nH]c4ncc(OCCO)cc34)CC2)n1 [Example 81, N-(bicyclo[1.1.1]pent-1-yl)-2-{[(1S,2R)-2-cyanocyclopropyl]methoxy}-6-{4-[5-(2-hydroxyethoxy)-1H-pyrazolo[3,4-b]pyridin-3-yl]piperidin-1-yl}pyrimidine-4-carboxamide]	8.28
COc1ccnc2[nH]cc(C3CCN(c4nc(OC[C@H]5C[C@H]5C#N)nc(C(=O)NCC(F)(F)F)n4)CC3)c12 [Example 380, 4-{[(1S,2R)-2-cyanocyclopropyl]methoxy}-6-[4-(4-methoxy-1H-pyrrolo[2,3-b]pyridin-3-yl)piperidin-1-yl]-N-(2,2,2-trifluoroethyl)-1,3,5-triazine-2-carboxamide]	9.14
C[C@H](CO)NC(=O)c1cc(N2CCC(COc3cc(-c4cn(C)cn4)cnc3N)CC2)nc(OCC2CC2)n1 [Example 384, 6-[4-({[2-amino-5-(1-methyl-1H-imidazol-4-yl)pyridin-3-yl]oxy}methyl)piperidin-1-yl]-2-(cyclopropylmethoxy)-N-[(2R)-1-hydroxypropan-2-yl]pyrimidine-4-carboxamide]	9.44
N#C[C@@H]1C[C@@H]1COc1nc(C(=O)NC23CC(C2)C3)cc(N2CC[C@H](c3n[nH]c4ncccc34)[C@H](F)C2)n1 (single isomer, unassigned) [Example 79]	7.25
N#CC1(COc2nc(C(=O)NCC(F)(F)F)nc(N3CCC(c4c[nH]c5nccnc45)CC3)n2)CC1 [Example 132, 4-(4-(5H-pyrrolo[2,3-b]pyrazin-7-yl)piperidin-1-yl)-6-((1-cyanocyclopropyl)methoxy)-N-(2,2,2-trifluoroethyl)-1,3,5-triazine-2-carboxamide]	6.64
CCNC(=O)c1cc(N2CCC(COc3cc(-c4cn(C)cn4)cnc3N)CC2)nc(O[C@H](C)COC)n1 [Example 68, 6-[4-({[2-amino-5-(1-methyl-1H-imidazol-4-yl)pyridin-3-yl]oxy}methyl)piperidin-1-yl]-N-ethyl-2-{[(2R)-1-methoxypropan-2-yl]oxy}pyrimidine-4-carboxamide]	8.53
COCCNC(=O)c1cc(N2CCC(c3ccc(N)c(C(N)=O)n3)CC2)nc(O[C@H](C)COC)n1 [Example 7, 6-[4-(5-amino-6-carbamoylpyridin-2-yl)piperidin-1-yl]-N-(2-methoxyethyl)-2-{[(2R)-1-methoxypropan-2-yl]oxy}pyrimidine-4-carboxamide]	7.83
CCNC(=O)c1cc(N2CCC(COc3cc(-c4cnn(C)c4)cnc3N)CC2)nc(OC[C@H]2C[C@H]2C#N)n1 [Example 25, 6-[4-({[2-amino-5-(1-methyl-1H-pyrazol-4-yl)pyridin-3-yl]oxy}methyl)piperidin-1-yl]-2-{[(1S,2R)-2-cyanocyclopropyl]methoxy}-N-ethylpyrimidine-4-carboxamide]	8.75
N#CC1(COc2nc(C(=O)NC34CC(C3)C4)nc(N3CCC(COc4cccnc4N)CC3)n2)CC1 [Example 90, 4-(4-{[(2-aminopyridin-3-yl)oxy]methyl}piperidin-1-yl)-N-(bicyclo[1.1.1]pent-1-yl)-6-[(1-cyanocyclopropyl)methoxy]-1,3,5-triazine-2-carboxamide]	8.16
N#C[C@@H]1C[C@@H]1COc1nc(C(=O)NCC(F)(F)F)cc(N2CCC(COc3cncnc3N)CC2)n1 [Example 33, 6-(4-{[(4-aminopyrimidin-5-yl)oxy]methyl}piperidin-1-yl)-2-{[(1S,2R)-2-cyanocyclopropyl]methoxy}-N-(2,2,2-trifluoroethyl) pyrimidine-4-carboxamide]	7.63
C[C@@H](NC(=O)c1cc(N2CCC(c3cccc(C(N)=O)n3)CC2)nc(OCC2CC2(F)F)n1)C(C)(C)O (stereo partly drawn) [Example 17, 6-[4-(6-carbamoylpyridin-2-yl)piperidin-1-yl]-2-[(2,2-difluoro-cyclopropyl)methoxy]-N-[(2R)-3-hydroxy-3-methylbutan-2-yl]pyrimidine-4-carboxamide]	7.40
C[C@H](CO)NC(=O)c1cc(N2CCC(c3n[nH]c4ncccc34)CC2)nc(OCC2CC(F)(F)C2)n1 [Example 47, 2-[(3,3-difluoro-cyclobutyl)methoxy]-N-[(2R)-1-hydroxypropan-2-yl]-6-[4-(1H-pyrazolo[3,4-b]pyridin-3-yl)piperidin-1-yl]pyrimidine-4-carboxamide]	8.42
N#C[C@@H]1C[C@@H]1COc1nc(C(=O)NC23CC(C2)C3)cc(N2CCC(COc3cncnc3N)C(F)(F)C2)n1 (single isomer, unassigned) [Example 62]	7.41
COC[C@@H](C)Oc1nc(C(=O)N[C@H](C)CN(C)C)cc(N2CCC(c3ccc(N)c(C(N)=O)n3)CC2)n1 (single isomer, unassigned) [Example 36]	7.06
C[C@H](CO)NC(=O)c1cc(N2CCC(c3n[nH]c4ncccc34)CC2)nc(OC[C@H]2CCOC2)n1 [Example 383, N-[(2R)-1-hydroxypropan-2-yl]-6-[4-(1H-pyrazolo[3,4-b]pyridin-3-yl)piperidin-1-yl]-2-[(3S)-tetrahydrofuran-3-ylmethoxy]pyrimidine-4-carboxamide]	6.92
N#CC1(COc2nc(C(=O)NCC(F)(F)F)nc(N3CCC(COc4cccnc4N)CC3)n2)CC1 [Example 91, 4-(4-{[(2-aminopyridin-3-yl)oxy]methyl}piperidin-1-yl)-6-[(1-cyanocyclopropyl)methoxy]-N-(2,2,2-trifluoroethyl)-1,3,5-triazine-2-carboxamide]	7.19
COC[C@@H](C)Oc1nc(C(=O)NCC(F)(F)F)cc(N2CCC(c3ccc(N)c(C(N)=O)n3)CC2)n1 [Example 6, 6-[4-(5-amino-6-carbamoylpyridin-2-yl)piperidin-1-yl]-2-{[(2R)-1-methoxypropan-2-yl]oxy}-N-(2,2,2-trifluoroethyl) pyrimidine-4-carboxamide]	7.54
N#CC1(COc2nc(C(=O)NC34CC(C3)C4)nc(N3CCC(c4n[nH]c5ncccc45)CC3)n2)CC1 [Example 59, N-(bicyclo[1.1.1]pent-1-yl)-4-[(1-cyanocyclopropyl)methoxy]-6-[4-(1H-pyrazolo[3,4-b]pyridin-3-yl)piperidin-1-yl]-1,3,5-triazine-2-carboxamide]	8.56
CN(C)CCOc1ccc(C(N)=O)nc1C1CCN(c2cc(C(=O)NC3CCC3)nc(OC[C@H]3C[C@H]3C#N)n2)CC1 [Example 18, 6-(4-{6-carbamoyl-3-[2-(dimethylamino)ethoxy]pyridin-2-yl}piperidin-1-yl)-2-{[(1S,2R)-2-cyanocyclopropyl]methoxy}-N-cyclobutyl-pyrimidine-4-carboxamide]	7.19
C[C@H](CO)NC(=O)c1cc(N2CCC(c3n[nH]c4ncccc34)CC2)nc(OCC2CC2)n1 [Example 72, 2-(cyclopropyl-methoxy)-N-[(2R)-1-hydroxypropan-2-yl]-6-[4-(1H-pyrazolo[3,4-b]pyridin-3-yl)piperidin-1-yl]pyrimidine-4-carboxamide]	8.37
